Columns and labels:
Format in all cases: binding
[1] = target: T1, T. marianensis hinT H100N (Tm hinT^HN) (Thermaerobacter marianensis, UniProt E6SKA2, H100N); test: isothermal titration calorimetry
T1 construct: gene Tmar_2180; expressed from pProEx in E. coli BL21, 6xHis cut by TEV, SEC

[2] = target: T2, H. sapiens hinT H112N (human hinT^HN) (Homo sapiens, UniProt P49773, H112N); test: isothermal titration calorimetry
T2 construct: gene HINT1
T2 sequence (P49773 1-126 H112N): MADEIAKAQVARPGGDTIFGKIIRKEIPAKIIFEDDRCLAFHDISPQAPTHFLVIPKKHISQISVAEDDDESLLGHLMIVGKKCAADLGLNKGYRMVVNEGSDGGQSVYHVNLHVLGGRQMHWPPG

[3] = target: T3, E. coli hinT H101N (Ec hinT^HN) (Escherichia coli, UniProt P0ACE7, H101N); test: isothermal titration calorimetry
T3 construct: expressed from pProEx in E. coli BL21, 6xHis cut by TEV, SEC; ATG replaces native TTG start
T3 sequence (P0ACE7 1-119 H101N): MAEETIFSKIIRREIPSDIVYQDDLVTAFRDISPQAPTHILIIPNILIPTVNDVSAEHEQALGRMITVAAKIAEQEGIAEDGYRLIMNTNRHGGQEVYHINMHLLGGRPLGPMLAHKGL

[4] = target: T2, H. sapiens hinT H112N (human hinT^HN); test: competition pulldown with sucA-AMP, α-AMP immunoblot; conditions: GST-tagged hinT on beads, sucA-AMP 470 nM, GMP up to 11.75 μM, TBS with Triton X-100, 1 mM DTT, 4 °C; competitive

## Nc1ncnc2c1ncn2[C@@H]1O[C@H](COP(=O)(O)O)[C@@H](O)[C@H]1O [AMP]
[1]
  Kd: 3 µM
[2]
  Kd: 0.279 µM
[3]
  Kd: 69 µM

## Nc1nc2c(ncn2[C@@H]2O[C@H](COP(=O)(O)O)[C@@H](O)[C@H]2O)c(=O)[nH]1 [GMP]
[4]
  competition pulldown with sucA-AMP, α-AMP immunoblot: increasing concentrations of GMP showed weaker competition with AMPylated proteins for binding to Hs hinT^HN

Reference: publication PMC12375108 (Nature Communications, 2025)
